“Also recorded” adds a separate entry of the source.
Columns and labels:
[1] = system: macrophages (acLDL uptake via the scavenger receptor A); test: Fluorescent acLDL uptake by macrophages; type: cell-based, mouse
Experimental: Cells were treated with Dil-acLDL (5 μg/ml) for 4 hours at 37° C., in the presence of recombinant HSP27 (5 μg/ml) and/or fucoidan (10 μg/ml). Cells were harvested by gentle cell scraping in 100 μl of PBS. Each sample was analyzed for acLDL fluorescence on a BMG PolarStar plate reader (excitation: 510 nm, emission: 570 nm) and normalized to total cell number using the Vi-Cell cell counter (Beckman Coulter, Mississauga, ON).
Foam cell formation is a hallmark process in the development of atherosclerosis, and prevention of lipid uptake by macrophages may serve to reduce overall lesion development and inflammation. If HSP27 can bind the SR-A in vitro, and there is an atheroprotective effect of HSP27 in vivo, HSP27 may prevent the SR-A from taking up atherogenic lipids such as acLDL and becoming foam cells. In support of this, mouse macrophages were cultured in vitro in the presence of fluorescently labeled acLDL for […], and acLDL uptake was measured using a fluorometer and normalized to total cell number.
Extracellular HSP27 inhibits uptake of acLDL by macrophages via the scavenger receptor A. Fluorescently labeled acLDL (5 μg/ml) was given to macrophages in the presence (right columns) or absence (left columns) of recombinant HSP27 (5 μg/ml). […] Fluorescent uptake was measured and normalized to total cell number.

[2] = biological target: T1, scavenger receptor A (SR-A) (Mus musculus, UniProt P30204); test: Immunolabeling of recombinant HSP27 binding to macrophage surface and SR-A
T1 construct: detection of a ˜50 kDa band corresponding to SR-A in these cells; endogenous in cells; host or cells: J774 mouse macrophages (untransfected); mouse peritoneal macrophages
T1 sequence (P30204 1-458): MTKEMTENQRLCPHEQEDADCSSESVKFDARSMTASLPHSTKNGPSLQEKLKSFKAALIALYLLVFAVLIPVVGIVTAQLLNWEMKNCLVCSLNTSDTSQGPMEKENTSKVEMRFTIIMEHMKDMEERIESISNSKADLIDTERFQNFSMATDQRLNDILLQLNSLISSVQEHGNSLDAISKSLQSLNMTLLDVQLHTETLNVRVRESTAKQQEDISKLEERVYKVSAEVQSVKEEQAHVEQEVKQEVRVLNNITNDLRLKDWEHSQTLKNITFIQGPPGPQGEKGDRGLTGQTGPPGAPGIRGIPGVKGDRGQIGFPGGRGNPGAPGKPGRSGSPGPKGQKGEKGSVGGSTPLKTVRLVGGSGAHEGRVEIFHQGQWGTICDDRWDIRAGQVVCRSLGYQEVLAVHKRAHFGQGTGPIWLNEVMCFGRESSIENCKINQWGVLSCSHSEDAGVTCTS
Experimental: J774 cells treated with recombinant HSP27 (5 μg/ml) with or without fucoidan (10 μg/ml) were fixed with BD Cytofix (BD Biosciences, Mississauga, ON) and blocked with 2% bovine serum albumin (BSA) for 2 hours. Antibodies against human HSP27 (Chemicon, 1:200) and scavenger receptor A (Serotec, 1:200) were incubated overnight at 4° C. Visualization of substrates was done using secondary antibodies conjugated to fluoroscein (for HSP27) and Texas Red (for SR-A). Negative controls included incubation with control IgG and secondary antibody alone.
Cells were grown on cover slips, and transfected as described above. Cells were fixed with BD Cytofix as directed by the manufacturer and mounted with Dako Fluorescent mounting media (Dako Cytomation, Mississauga, ON). Coverslips were visualized with an Olympus FluoView FV1000 confocal microscope (Olympus America Inc, Center Valley, Pa.) at 100× magnification, using sequential scanning to reduce any potential non-specific excitation of the different fluorophores.
Cells were also treated with an SR-A specific competitive ligand (fucoidan, 10 ug/ml) before administration of HSP27 (bottom panel). Co-localization is seen as a yellow colour. […] Macrophages from SR-A null mice were harvested and incubated with recombinant HSP27 (5 μg/ml) for 2 hours at 4° C. Immunolabeling was performed as described above.

[3] = system: ApoE−/− mice; test: Short term (3 week) rHSP27 treatment of ApoE−/− mice on high fat diet; type: in vivo, mouse
Experimental: ApoE^−/− mice were maintained on a high fat diet and randomized to rHSP27 (100 ug) vs. phosphate buffered saline (PBS) twice a day for 3 weeks.
FIG. 22A depicts the experimental design: ApoE^−/− mice were maintained on a high fat diet and randomized to rHSP27 (100 ug) vs. phosphate buffered saline (PBS) twice a day for 3 weeks. The mice were then euthanized and blood samples were collected. After perfusing with phosphate-buffered saline (PBS) followed by 4% paraformaldehyde (PFA) in PBS via the left ventricle, the heart and aorta were removed and immersed in 4% PFA/PBS at 4° C. overnight. Serum lipoprotein separation was performed by fast-performance liquid chromatography (FPLC) analysis using a Superose 6 column (Pharmacia Biotech Inc., Piscataway, N.J., USA) on an HPLC system model 805 MANOMETRIC MODULE (GILSON). An enzymatic assay kit (Wako Pure Chemical Industries, Ltd, Osaka, Japan) was employed to determine cholesterol level. The content of the aortic atherosclerotic lesions were assessed using quantitative histochemical and immunohistochemical methods. Dark red oil red O staining identifying lipidoid deposits, while Haematoxylin and eosin (H&E) stained denote tissue histopathology.
Hematoxylin and eosin (H&E) stained tissue sections were also labeled for nuclear staining (blue fluorescent Hoechst 33258), apoptosis (green fluorescent TUNEL labeling) and macrophages accumulation (green fluorescent Mac-2).

[4] = rHSP27 pharmacokinetic experiments (subcutaneous injection); type: in vivo, mouse; settings: 100 μg subcutaneously, male and female ApoE−/− mice; similar to female ApoE−/− HSP27o/e mice
Experimental: These were performed by injecting 100 μg of purified rHSP27 or control BSA (in PBS) subcutaneously into male and female ApoE^−/− mice and then checked serum rHSP27 levels at various times post-injection (n=3-6).

[5] = system: Insulin; test: rHSP27 chaperone activity assay (DTT-induced aggregation of insulin); type: biochemical; settings: Insulin 40 μM; Insulin:rHSP27 10:1 and 100:1; 43° C.; absorbance at 320 nm
Experimental: The rHSP27 was produced in E. coli. The rHSP27 so produced is >90% endotoxin free (endotoxin concentration assessed using Limulus Amebocyte Lysate gel-blot Assay: 2-3 EU/mg protein). Based on in vitro chaperone assay experiments, the protein is “functional”. […] The DTT-induced aggregation of insulin was performed in the absence and presence of rHSP27 in PBS solution, pH 7.4, to measure the chaperone activity of rHSP27. Insulin (40 μM) with different concentration of rHSP27 (Insulin: rHSP27=10:1 and 100:1 and no rHSP27) in PBS were incubated for 10 min at 43° C., respectively. Aggregation was monitored by measure the absorbance at 320 nm in Bioteck Synergy Mx spectrophotometer for 30 min at 43° C. after add DTT to a final concentration of 20 mM.

[6] = system: Human macrophages (U937); test: HSP27 secretion from human macrophages (Western blot of conditioned media); type: cell-based
Experimental: (§1) Cell lysates were obtained using a RIPA buffer [1% NP-40, 0.5% sodium deoxycholate, 0.1% SDS, Complete™ inhibitor in PBS]. Cells were washed twice with PBS, lysed in RIPA buffer, collected using a cell scraper, and placed on ice for 45 minutes. Cell debris was collected by centrifugation at 15,000×g for 20 minutes, and the supernatant containing the cellular protein was isolated. Protein was quantified using Bradford reagent (Sigma). For western blotting, 50 μg of whole cell protein was loaded onto a 10% SDS-PAGE gel and separated at 120V using gel electrophoresis. Protein was then transferred to a PVDF membrane (BioRad, Hercules, Calif.) for 2 hours at 60V. Membranes were then subjected to western blotting using the following antibodies: anti-HSP27 (Santa Cruz, 1:200); anti-SR-A (Chemicon, 1:2000); anti-IL-1β (R&D, 1:500); anti-IL-10 (Santa Cruz, 1:200).
Human macrophages (U937) were plated in replicates at a density of […] per well and treated with estradiol or acLDL. […] Macrophages were subjected to increasing concentrations of acLDL (1 to 100 μg/mL) for 24 hours.

[7] = system: macrophages (IL-1β, IL-10 release); test: Cytokine release from acLDL-treated macrophages (western blot of conditioned media); type: cell-based, mouse; settings: recombinant HSP27 5 μg/ml, acLDL 5 ug/ml, 30 minutes and 4 hours
Experimental: as §1
Fluorescently labeled acLDL (5 ug/ml) was given to macrophages in the presence or absence of recombinant HSP27 (5 μg/ml). Conditioned media was collected after 30 minutes and 4 hours and subjected to western blotting for IL-1β (FIG. 7A) and IL-10 (FIG. 7B). Addition of HSP27 caused a decrease in the acLDL-induced secretion of IL-1β into the extracellular space.

[8] = system: aortic endothelial cells; test: HSP27 secretion from aortic endothelial cells (Western blot); type: cell-based, human; settings: DPN 1 nM, 24 h
Source text: (§2) HSP27 was detected in the extracellular space by Western blot.

[9] = system: aortic smooth muscle cells; test: HSP27 secretion from aortic smooth muscle cells (Western blot); type: cell-based, human; settings: DPN 1 nM, 24 h
Source text: as §2

## fucoidan [reference compound]
[1]; fucoidan 10 ug/ml before acLDL or HSP27
  inhibition of acLDL uptake by macrophages: capable of inhibiting this process
[2]; fucoidan 10 ug/ml before HSP27
  HSP27 binding to SR-A in the presence of competitor: reduced

## rHSP27: recombinant human heat shock protein 27 produced in E. coli, purified, injected subcutaneously
[3]; 100 ug BID, 3 weeks
  body weight: did not change
  cholesterol levels contained by VLDL and IDL/LDL (FPLC): reduces cholesterol levels contained by VLDL and IDL/LDL
  number of WBC (peripheral blood smears): did not change
[3]; 100 ug BID, 3 weeks, Mac-2
  reduction in abundance of aortic sinus lesion macrophages: approximately 45%
[3]; 100 ug BID, 3 weeks, TUNEL
  reduction in abundance of apoptotic macrophages in aortic sinus lesion: ~80%
[3]; 100 ug BID, 3 weeks, p=0.002
  reduction in aortic sinus lesion area: 26%
[3]; 100 ug BID, 3 weeks, p=0.01
  reduction in aortic wall (en face) lesion area: 27%
[3]; 100 ug BID, after the 3rd week
  liver cholesterol content: without a rise
[3]; 100 ug BID, after the 3rd week, vs PBS
  serum total cholesterol levels lower by: 41%
[3]; mouse, in vivo
  adverse events when injected in mice: did not cause adverse events
  atherogenesis in ApoE−/− mice: efficacious in reducing atherogenesis
[4]
  serum rHSP27 level with twice daily injection schedule: effective to maintain a serum level of rHSP27
[5]
  chaperone activity (in vitro aggregation and refolding assays): functional

## C[C@]12CC[C@@H]3c4ccc(O)cc4CC[C@H]3[C@@H]1CC[C@@H]2O [E2, 17β-estradiol]
[6]
  intracellular HSP27 protein levels: increased slightly
[6]; 100 nmol/L E2 overnight
  colocalization of HSP27 with lysosome marker LAMP1: displayed colocalization of HSP27 (red) and LAMP1
[6]; E2 for 24 hours, compared to controls
  HSP27 release into the media: dose-dependent increase
[6]; estrogen-induced release over time
  time of maximum HSP27 secretion: 24 h

## recombinant HSP27: Recombinant HSP27 was purchased from Stressgen; heat shock protein 27 added extracellularly to macrophages
[1]; recombinant HSP27 5 μg/ml, fluorescently labeled acLDL 5 μg/ml, normalized to total cell number
  reduction in acLDL uptake by macrophages: 41%
[2]; 5 μg/ml, 2 hours at 4° C.
  HSP27 binding to the cell surface of macrophages from SR-A null mice: completely abolished
[2]; 5 μg/ml, 2 hours at 4° C., confocal microscopy
  binding to surface of macrophages and co-localization with SR-A: capable of binding the surface of macrophages, and co-localizes with SR-A
[7]
  acLDL-induced secretion of IL-1β: decrease
  release of IL-10: increased
[7]; listed as HSP27
  acLDL-induced secretion of IL-1β: considerable decrease; also recorded: reduced

## N#CC(Cc1ccc(O)cc1)c1ccc(O)cc1 (stereo not shown) [DPN]
[6]; DPN 1 nM, 4 h or 24 h
  HSP27 secretion upon stimulation of ERβ: enhanced
[8]
  HSP27 secretion from endothelial cells: increase in HSP27 secretion
[9]
  HSP27 secretion from smooth muscle cells: not smooth muscle cells

Reference: patent US8343916B2, “Use of heat-shock protein 27 for cardiovascular disease prevention and treatment” (Ottawa Heart Institute Research Corporation, priority 2007, dated 2013)
